Publication PMC10285453 (Comprehensive Psychoneuroendocrinology, 2023)

Assays:
[1] = test system: primary polyclonal rabbit anti-OXT IgG (Cayman Chemical Company OXT EIA, secondary monoclonal mouse anti-rabbit IgG); assay: OXT EIA cross-reactivity, Cayman Chemical Company kit; assay type: binding
[2] = same ultrafiltration columns, cited from earlier work
[3] = test system: primary polyclonal rabbit anti-OXT IgG (Enzo Life Sciences OXT EIA, secondary polyclonal goat anti-rabbit IgG); details: competitive EIA; published IC50; ref manufacturer (Enzo Life Sciences); cited from earlier work
[4] = test system: primary polyclonal rabbit anti-OXT IgG (Cayman Chemical Company OXT EIA, secondary monoclonal mouse anti-rabbit IgG); details: competitive EIA; ref manufacturer (Cayman Chemical Company); cited from earlier work
[5] = Reversed phase SPE of OXT from pure solution; assay type: physicochemical; details: 200 pg/ml pure OXT solution, 0.1% TFA-H2O, separate C-18 column elutions, Enzo Life Sciences EIA

Immunoglobulin G
cross-reactivity (IC50(OXT)/IC50(interfering protein)) [1]: < 0.01%

Immunoglobulin M
cross-reactivity (IC50(OXT)/IC50(interfering protein)) [1]: < 0.01%

Transferrin
cross-reactivity (IC50(OXT)/IC50(interfering protein)) [1]: < 0.01%

oxytocin [OXT]
OXT recovery rate from plasma, ultrafiltration ([2]; plasma): 91.8% | OXT recovery rate from saliva, ultrafiltration ([2]; saliva): 68.4% | IC50 of the Enzo Life Sciences OXT assay [3]: 0.228 ng/mL | mean IC50 of the Cayman Chemical Company OXT assay [4]: 0.08 ng/mL | OXT recovered in the eluate, reversed phase SPE ([5]; 30–40% ACN range, CV for three columns 30.8–136.5%): 10.1–49.1% | total amount of OXT measured in all fractions (load, wash, eluate) as % of the original sample [5]: 37.1–92.2%
